Where only a bound is given, the exact number is not on record here.

For experiment [1], the target named is ErbB2 insYVMA (HER2-YVMA, SEQ ID NO: 2) (Homo sapiens, UniProt P04626, INS775YVMA/P1170A). The experiment is described as follows: biochemical. As to conditions: ErbB2 insYVMA enzyme assay; read-out: Assay 1 IC50.
Another experiment deals with ErbB2 WT (Homo sapiens (Human), UniProt P04626). The experiment is described as follows: ErbB enzyme assay (CisBio HTRF KinEASE-TK), Assay 2. The experiment is classed as biochemical. The procedure, abridged: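 ErbB2 phosphorylates 250 nM biotin-TK substrate at 1 mM ATP in 25 mM HEPES pH 7.4, 10 mM MgCl2, 0.01% Triton X-100 and 2% DMSO, for 30 min at 22 °C. Product is detected by HTRF with Sa-XL665 and TK-Ab-Cryptate. Percent of control is set by DMSO-only wells and pre-quenched wells.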
Sequence of ErbB2 WT (P04626 23-1255): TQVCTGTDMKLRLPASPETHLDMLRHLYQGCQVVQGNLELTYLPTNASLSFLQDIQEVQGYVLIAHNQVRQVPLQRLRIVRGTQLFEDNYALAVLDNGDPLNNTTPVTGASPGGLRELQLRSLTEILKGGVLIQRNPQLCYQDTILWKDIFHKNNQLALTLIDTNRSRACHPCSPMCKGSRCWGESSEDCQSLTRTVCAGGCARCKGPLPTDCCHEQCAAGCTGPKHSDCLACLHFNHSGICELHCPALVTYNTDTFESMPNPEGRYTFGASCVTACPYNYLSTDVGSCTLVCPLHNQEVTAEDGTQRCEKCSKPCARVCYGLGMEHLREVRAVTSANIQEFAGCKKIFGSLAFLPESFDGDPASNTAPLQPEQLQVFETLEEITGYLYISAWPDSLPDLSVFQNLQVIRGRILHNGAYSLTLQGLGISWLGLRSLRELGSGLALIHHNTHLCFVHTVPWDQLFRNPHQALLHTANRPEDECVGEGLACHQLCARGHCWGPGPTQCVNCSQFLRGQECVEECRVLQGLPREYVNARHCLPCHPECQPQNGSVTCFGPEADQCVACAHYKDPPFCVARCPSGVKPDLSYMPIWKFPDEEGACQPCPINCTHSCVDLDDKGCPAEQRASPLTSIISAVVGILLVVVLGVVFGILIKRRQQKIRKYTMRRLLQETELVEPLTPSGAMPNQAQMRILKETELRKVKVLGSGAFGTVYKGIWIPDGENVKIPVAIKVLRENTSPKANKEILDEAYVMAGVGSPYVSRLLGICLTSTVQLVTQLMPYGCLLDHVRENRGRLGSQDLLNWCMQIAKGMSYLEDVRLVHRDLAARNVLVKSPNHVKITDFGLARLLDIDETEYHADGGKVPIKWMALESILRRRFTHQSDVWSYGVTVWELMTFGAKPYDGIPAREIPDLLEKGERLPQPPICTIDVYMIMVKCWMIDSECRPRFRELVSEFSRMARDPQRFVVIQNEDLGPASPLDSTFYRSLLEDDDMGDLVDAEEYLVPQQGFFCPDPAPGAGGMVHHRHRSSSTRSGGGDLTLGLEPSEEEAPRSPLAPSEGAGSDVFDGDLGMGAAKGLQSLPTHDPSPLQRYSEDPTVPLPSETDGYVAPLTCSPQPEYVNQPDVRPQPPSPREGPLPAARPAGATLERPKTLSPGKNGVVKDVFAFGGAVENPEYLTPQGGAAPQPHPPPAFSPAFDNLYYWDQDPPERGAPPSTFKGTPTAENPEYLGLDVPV
(In general: TR-FRET usually uses a lanthanide donor and a delayed reading to cut background.)

The target of another experiment is EGFR (Homo sapiens (Human), UniProt P00533). The experiment is described as follows: ErbB enzyme assay (CisBio HTRF KinEASE-TK), Assay 3. In kind it is biochemical. The procedure, abridged:
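Kinase incubated 30 min at 22 °C with 250 nM biotinylated TK substrate, 1 mM ATP and serially diluted compound in 25 mM HEPES pH 7.4, 10 mM MgCl2, 0.01% Triton X-100, 2% DMSO. Phosphorylation read by HTRF (Sa-XL665/TK-Ab-Cryptate); IC50 from 4-parameter fit of percent of control.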

Experiment [2] concerns the target ErbB2 with Exon 20 YVMA insertion (HER2-YVMA) (Homo sapiens (Human), UniProt P04626, INS775YVMA). In words: Cellular phosphorylation assay, constitutive ErbB2 phosphorylation (Y1196) in engineered NIH 3T3 cells, Assay 4. In kind it is cell-based. The procedure, abridged:
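Engineered NIH 3T3 cells expressing HER2-YVMA treated with compounds 1 h at 37 °C, then formaldehyde-fixed and methanol-permeabilized. pErbB2 Y1196 detected by in-cell infrared immunofluorescence, normalized to GAPDH. IC50 from the normalized curves.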

The next experiment has as its target EGFR wild type (EGFR WT) (Homo sapiens (Human), UniProt P00533). The experiment is described as follows: Cellular phosphorylation assay, EGF-stimulated EGFR phosphorylation in engineered NIH 3T3 cells, Phospho-EGFR DuoSet IC ELISA, Assay 5. In kind it is cell-based. In short, it runs like this:
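NIH 3T3 cells expressing EGFR WT (20,000/well, attached overnight) were exposed to serially diluted compound for 1 h at 37 °C, then stimulated with 100 ng/ml rEGF for 10 min. Phospho-EGFR in lysates measured by sandwich ELISA optical density; IC50 from curves.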
On the technique in general: ELISA stands for enzyme-linked immunosorbent assay.

Sequence of ErbB2 insYVMA (HER2-YVMA, SEQ ID NO: 2) (P04626 with tags, fused parts or gaps INS775YVMA/P1170A limits assumed): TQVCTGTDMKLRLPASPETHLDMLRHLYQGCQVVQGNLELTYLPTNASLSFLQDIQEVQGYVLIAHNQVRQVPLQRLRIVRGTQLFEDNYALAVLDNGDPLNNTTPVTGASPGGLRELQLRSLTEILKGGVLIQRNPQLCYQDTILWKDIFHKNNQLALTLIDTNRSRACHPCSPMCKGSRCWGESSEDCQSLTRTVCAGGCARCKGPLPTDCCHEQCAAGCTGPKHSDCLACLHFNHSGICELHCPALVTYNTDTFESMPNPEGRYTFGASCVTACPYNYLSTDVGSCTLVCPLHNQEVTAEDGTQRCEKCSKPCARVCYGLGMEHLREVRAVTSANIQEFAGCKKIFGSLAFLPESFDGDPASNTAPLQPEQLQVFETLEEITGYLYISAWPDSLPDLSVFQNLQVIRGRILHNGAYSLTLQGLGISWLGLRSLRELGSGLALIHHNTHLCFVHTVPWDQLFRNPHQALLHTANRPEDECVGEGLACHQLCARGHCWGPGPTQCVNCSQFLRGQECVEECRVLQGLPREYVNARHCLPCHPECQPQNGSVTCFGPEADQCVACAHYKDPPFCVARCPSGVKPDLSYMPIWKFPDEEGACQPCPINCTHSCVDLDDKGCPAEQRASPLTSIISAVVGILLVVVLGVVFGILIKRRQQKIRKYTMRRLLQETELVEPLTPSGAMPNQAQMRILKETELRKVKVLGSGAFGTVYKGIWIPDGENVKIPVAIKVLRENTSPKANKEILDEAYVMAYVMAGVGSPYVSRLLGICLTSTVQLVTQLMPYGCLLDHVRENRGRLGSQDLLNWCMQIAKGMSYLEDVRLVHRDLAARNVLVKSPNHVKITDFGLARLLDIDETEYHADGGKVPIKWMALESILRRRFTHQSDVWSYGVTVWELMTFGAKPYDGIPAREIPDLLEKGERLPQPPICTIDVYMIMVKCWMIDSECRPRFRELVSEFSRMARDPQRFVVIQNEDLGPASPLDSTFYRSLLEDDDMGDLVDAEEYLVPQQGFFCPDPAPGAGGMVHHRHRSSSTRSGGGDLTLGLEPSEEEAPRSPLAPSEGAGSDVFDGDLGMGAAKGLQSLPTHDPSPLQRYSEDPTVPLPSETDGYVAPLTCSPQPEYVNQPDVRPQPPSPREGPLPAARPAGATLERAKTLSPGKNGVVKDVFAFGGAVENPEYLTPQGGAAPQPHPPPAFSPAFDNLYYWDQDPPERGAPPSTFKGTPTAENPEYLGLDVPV
Sequence of ErbB2 with Exon 20 YVMA insertion (HER2-YVMA) (P04626 other isoform, or with tags, fused parts or gaps ins YVMA behind 775): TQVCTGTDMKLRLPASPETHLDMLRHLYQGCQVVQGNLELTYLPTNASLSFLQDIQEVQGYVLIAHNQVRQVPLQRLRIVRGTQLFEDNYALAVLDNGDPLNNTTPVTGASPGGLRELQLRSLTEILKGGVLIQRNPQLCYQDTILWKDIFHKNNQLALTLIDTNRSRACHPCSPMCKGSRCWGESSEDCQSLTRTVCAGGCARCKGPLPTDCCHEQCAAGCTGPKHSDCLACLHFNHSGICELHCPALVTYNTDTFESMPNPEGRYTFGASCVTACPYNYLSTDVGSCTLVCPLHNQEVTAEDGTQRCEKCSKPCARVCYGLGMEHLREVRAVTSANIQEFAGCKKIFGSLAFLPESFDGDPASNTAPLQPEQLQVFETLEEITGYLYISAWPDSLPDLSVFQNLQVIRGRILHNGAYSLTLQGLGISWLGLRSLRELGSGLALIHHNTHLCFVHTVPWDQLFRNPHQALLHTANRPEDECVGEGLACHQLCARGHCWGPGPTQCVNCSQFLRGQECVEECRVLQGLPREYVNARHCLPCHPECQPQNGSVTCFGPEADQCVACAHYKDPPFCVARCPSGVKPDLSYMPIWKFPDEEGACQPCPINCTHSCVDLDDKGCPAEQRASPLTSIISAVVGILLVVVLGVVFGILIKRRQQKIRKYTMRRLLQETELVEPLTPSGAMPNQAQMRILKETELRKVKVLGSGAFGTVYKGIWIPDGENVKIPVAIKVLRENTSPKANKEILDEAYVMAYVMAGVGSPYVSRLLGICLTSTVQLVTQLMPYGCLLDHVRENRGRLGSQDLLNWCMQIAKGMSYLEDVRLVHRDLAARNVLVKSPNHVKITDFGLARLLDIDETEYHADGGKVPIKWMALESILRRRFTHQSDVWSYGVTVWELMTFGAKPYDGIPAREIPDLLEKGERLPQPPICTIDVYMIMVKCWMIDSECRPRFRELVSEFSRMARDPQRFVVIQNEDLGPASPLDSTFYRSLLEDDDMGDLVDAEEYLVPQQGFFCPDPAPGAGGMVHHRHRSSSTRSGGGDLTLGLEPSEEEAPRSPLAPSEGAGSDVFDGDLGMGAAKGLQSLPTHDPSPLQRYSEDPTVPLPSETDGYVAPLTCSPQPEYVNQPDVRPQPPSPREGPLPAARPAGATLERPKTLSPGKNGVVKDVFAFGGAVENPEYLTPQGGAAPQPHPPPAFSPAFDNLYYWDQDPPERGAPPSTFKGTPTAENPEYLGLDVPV
Sequence of EGFR wild type (EGFR WT) (P00533 25-1210): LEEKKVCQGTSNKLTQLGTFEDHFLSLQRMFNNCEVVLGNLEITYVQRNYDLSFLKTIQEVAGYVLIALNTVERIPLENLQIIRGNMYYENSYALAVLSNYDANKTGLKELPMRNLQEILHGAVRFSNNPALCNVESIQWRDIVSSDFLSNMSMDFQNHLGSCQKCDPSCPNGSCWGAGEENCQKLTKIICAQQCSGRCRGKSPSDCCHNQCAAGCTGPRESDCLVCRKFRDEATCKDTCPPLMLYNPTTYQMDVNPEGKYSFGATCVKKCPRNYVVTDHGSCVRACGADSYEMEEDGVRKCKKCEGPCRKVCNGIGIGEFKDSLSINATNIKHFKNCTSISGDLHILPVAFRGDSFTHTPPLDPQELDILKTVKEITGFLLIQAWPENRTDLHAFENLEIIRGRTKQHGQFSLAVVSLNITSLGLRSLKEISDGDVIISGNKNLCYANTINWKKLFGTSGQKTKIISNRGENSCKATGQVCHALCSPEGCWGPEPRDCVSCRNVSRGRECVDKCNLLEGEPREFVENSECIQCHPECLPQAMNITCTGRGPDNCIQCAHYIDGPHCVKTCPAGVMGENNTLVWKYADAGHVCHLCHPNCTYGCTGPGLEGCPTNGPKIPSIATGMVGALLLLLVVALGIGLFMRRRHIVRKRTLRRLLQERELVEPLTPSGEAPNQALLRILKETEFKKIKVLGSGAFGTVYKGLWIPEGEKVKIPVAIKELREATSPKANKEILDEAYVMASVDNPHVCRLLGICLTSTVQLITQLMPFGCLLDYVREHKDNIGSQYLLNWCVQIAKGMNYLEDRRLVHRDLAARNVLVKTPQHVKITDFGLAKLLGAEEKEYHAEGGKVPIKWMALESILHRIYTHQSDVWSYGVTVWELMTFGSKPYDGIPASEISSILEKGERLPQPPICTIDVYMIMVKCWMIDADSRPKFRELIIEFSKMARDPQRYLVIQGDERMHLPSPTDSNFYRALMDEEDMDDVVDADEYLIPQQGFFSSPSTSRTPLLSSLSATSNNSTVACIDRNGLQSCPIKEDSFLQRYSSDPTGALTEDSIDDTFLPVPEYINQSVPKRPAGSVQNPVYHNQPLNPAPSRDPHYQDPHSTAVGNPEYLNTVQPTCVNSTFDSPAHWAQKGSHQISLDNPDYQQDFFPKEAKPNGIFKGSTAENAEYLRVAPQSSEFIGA

Take `Cc1cc(Nc2ncnc3cnc(N4CCOCC4)nc23)ccc1Oc1ccc2csnc2c1` [Example 243]: the IC50 (commonly the midpoint of a concentration-inhibition curve) stood at 40.6 nM in experiment [1]; 264 nM on ErbB2 WT; 2490 nM on EGFR; 173 nM in experiment [2]; 3040 nM on EGFR wild type (EGFR WT).
Take `Cc1cc(Nc2ncnc3cnc(N4CC5CCC(C4)O5)nc23)ccc1Oc1ccc2c(c1)ncn2C` [Example 256]: the half-maximal inhibitory concentration (IC50) in experiment [1] is 49.1 nM; against ErbB2 WT it was 71.7 nM; at EGFR, at least 10000 nM; in experiment [2], 12.2 nM; against EGFR wild type (EGFR WT), at least 5000 nM.
In the case of `Cc1cc(Nc2ncnc3cnc(N4CCOC[C@H]4C)nc23)ccc1Oc1ccc2c(c1)ncn2C` [Example 257], the IC50 is 19.8 nM in experiment [1]; 8.2 nM at ErbB2 WT; 3270 nM against EGFR; 9.4 nM in experiment [2]; at least 5000 nM on EGFR wild type (EGFR WT).
The matching figures for `CO[C@H]1C[C@@H](Nc2ncc3ncnc(Nc4ccc(Oc5ccc6c(c5)ncn6C)c(C)c4)c3n2)C1` [Example 260]: 31.8 nM, 42 nM, at least 10000 nM, 21.5 nM and at least 5000 nM.
On to `Cc1cc(Nc2ncnc3cnc(NC(C)C)nc23)ccc1Oc1ccc2c(c1)ncn2C` [Example 261], for which the IC50 in experiment [1] is 48.8 nM; on ErbB2 WT it was 86.1 nM; against EGFR it was at least 10000 nM; in experiment [2], 21.9 nM; on EGFR wild type (EGFR WT), at least 5000 nM.
Regarding `Cc1cc(Nc2ncnc3cnc(N4CC5(CC5)CS4(=O)=O)nc23)ccc1Oc1ccc2c(c1)ncn2C` [Example 264], the half-inhibitory concentration (IC50) in experiment [1] was 35.1 nM; at ErbB2 WT, 42.4 nM; against EGFR it was at least 10000 nM; in experiment [2] it was 6.6 nM; on EGFR wild type (EGFR WT), at least 5000 nM.
In the case of `CSc1ncc2ncnc(Nc3ccc(Oc4ccc5c(c4)ncn5C)c(C)c3F)c2n1` [Example 266], the IC50 in experiment [1] is 115 nM; on ErbB2 WT it was 796 nM; on EGFR, at least 10000 nM; in experiment [2], 642 nM; against EGFR wild type (EGFR WT), at least 5000 nM.
As to `Cc1cc(Nc2ncnc3cnc(NC4CC4)nc23)ccc1Oc1ccc2c(c1)ncn2C` [Example 270], the 50% inhibitory concentration (IC50) in experiment [1] is 10.9 nM; at ErbB2 WT it was 22.2 nM; against EGFR it was at least 10000 nM; in experiment [2], 3.1 nM; at EGFR wild type (EGFR WT), at least 5000 nM.
`Cc1cc(Nc2ncnc3cnc(NC4CCCC4)nc23)ccc1Oc1ccc2c(c1)ncn2C` [Example 273]: the IC50 was 95 nM in experiment [1]; 202 nM against ErbB2 WT; at least 10000 nM against EGFR; 33.5 nM in experiment [2]; at least 5000 nM at EGFR wild type (EGFR WT).
In the case of `Cc1cc(Nc2ncnc3cnc(N[C@H]4CNC[C@H]4F)nc23)ccc1Oc1ccc2c(c1)ncn2C` [Example 276], the IC50 is 8 nM in experiment [1]; 13.5 nM on ErbB2 WT; 1360 nM against EGFR; 41.5 nM in experiment [2]; at least 5000 nM at EGFR wild type (EGFR WT).
In the same order, the values of `Cc1cc(Nc2ncnc3cnc(N4CCN[C@H](C)C4)nc23)ccc1Oc1ccc2c(c1)ncn2C` [Example 277] are 16 nM, 42.8 nM, at least 10000 nM, 28.3 nM and at least 5000 nM.
In the case of `Cc1cc(Nc2ncnc3cnc(N4CCN[C@@H](C)C4)nc23)ccc1Oc1ccc2c(c1)ncn2C` [Example 278], the IC50 in experiment [1] is 22 nM; on ErbB2 WT it was 42.9 nM; at EGFR, 9550 nM; in experiment [2], 13.5 nM; on EGFR wild type (EGFR WT), at least 5000 nM.
With `Cc1cc(Nc2ncnc3cnc(O[C@H]4CCN(C)C[C@H]4F)nc23)ccc1Oc1ccc2c(c1)ncn2C` [Example 286], the half-maximal inhibitory concentration (IC50) in experiment [1] was 98.1 nM; against ErbB2 WT it was 468 nM; against EGFR, at least 10000 nM; in experiment [2] it was 81.4 nM; against EGFR wild type (EGFR WT), at least 5000 nM.
Turning to `Cc1cc(Nc2ncnc3cnc(O[C@H]4CN(C)C[C@H]4F)nc23)ccc1Oc1ccc2c(c1)ncn2C` [Example 287], the IC50 in experiment [1] was 42.9 nM; at ErbB2 WT, 118 nM; on EGFR, at least 10000 nM; in experiment [2] it was 60.9 nM; on EGFR wild type (EGFR WT), at least 5000 nM.
In the case of `Cc1cc(Nc2ncnc3cnc(O[C@H]4CCN(C)C[C@@H]4F)nc23)ccc1Oc1ccc2c(c1)ncn2C` [Example 288], the IC50 in experiment [1] was 79.8 nM; against ErbB2 WT, 262 nM; against EGFR, at least 10000 nM; in experiment [2] it was 94 nM; at EGFR wild type (EGFR WT), at least 5000 nM.
The matching figures for `Cc1cc(Nc2ncnc3cnc(O[C@H]4CNCC[C@@H]4F)nc23)ccc1Oc1ccc2c(c1)ncn2C` [Example 289]: 109 nM, 584 nM, at least 10000 nM, 73.9 nM and at least 5000 nM.
On to `Cc1cc(Nc2ncnc3cnc(O[C@H]4CNCC[C@H]4F)nc23)ccc1Oc1ccc2c(c1)ncn2C` [Example 290], for which the IC50 is 92.5 nM in experiment [1]; 601 nM at ErbB2 WT; at least 10000 nM against EGFR; 83.5 nM in experiment [2]; at least 5000 nM at EGFR wild type (EGFR WT).
In the case of `Cc1cc(Nc2ncnc3cnc(OCC4(F)CNC4)nc23)ccc1Oc1ccc2c(c1)ncn2C` [Example 291], the IC50 in experiment [1] is 76.2 nM; against ErbB2 WT, 446 nM; against EGFR it was at least 10000 nM; in experiment [2], 84.1 nM; at EGFR wild type (EGFR WT), at least 5000 nM.
The matching figures for `Cc1cc(Nc2ncnc3cnc(OCC4(F)CN(C)C4)nc23)ccc1Oc1ccc2c(c1)ncn2C` [Example 292]: 105 nM, 558 nM, at least 10000 nM, 132 nM and at least 5000 nM.
In the case of `Cc1cc(Nc2ncnc3cnc(O[C@H]4CN(C)CC[C@H]4F)nc23)ccc1Oc1ccc2c(c1)ncn2C` [Example 293], the concentration for half-maximal inhibition (IC50) is 87.7 nM in experiment [1]; 568 nM on ErbB2 WT; at least 10000 nM on EGFR; 81.2 nM in experiment [2]; at least 5000 nM at EGFR wild type (EGFR WT).
Consider `Cc1cc(Nc2ncnc3cnc(O[C@@H]4CNC[C@H](F)C4)nc23)ccc1Oc1ccc2c(c1)ncn2C` [Example 295], for which the concentration for half-maximal inhibition (IC50) in experiment [1] is 115 nM; at ErbB2 WT, 552 nM; on EGFR it was at least 10000 nM; in experiment [2], 40.4 nM; against EGFR wild type (EGFR WT) it was at least 5000 nM.
On to `Cc1cc(Nc2ncnc3cnc(O[C@H]4CN(C)CC[C@@H]4F)nc23)ccc1Oc1ccc2c(c1)ncn2C` [Example 296], for which the IC50 is 59.6 nM in experiment [1]; 141 nM against ErbB2 WT; at least 10000 nM against EGFR; 68.2 nM in experiment [2]; at least 5000 nM on EGFR wild type (EGFR WT).
In the same order, the values of `COC1(C)CN(c2ncc3ncnc(Nc4ccc(Oc5ccc6c(c5)ncn6C)c(C)c4)c3n2)C1` [Example 298] are 40.2 nM, 234 nM, at least 10000 nM, 38.6 nM and at least 5000 nM.
For `Cc1cc(Nc2ncnc3cnc(N4CC5(C4)CC5(F)F)nc23)ccc1Oc1ccc2c(c1)ncn2C` [Example 300], the concentration for half-maximal inhibition (IC50) was 75.5 nM in experiment [1]; 284 nM against ErbB2 WT; at least 10000 nM against EGFR; 30.7 nM in experiment [2]; at least 5000 nM against EGFR wild type (EGFR WT).
The matching figures for `Cc1cc(Nc2ncnc3cnc(O[C@@H]4CNCC4(F)F)nc23)ccc1Oc1ccc2c(c1)ncn2C` [Example 301]: 39.1 nM, 241 nM, at least 10000 nM, 60.8 nM and at least 5000 nM.
The matching figures for `Cc1cc(Nc2ncnc3cnc(O[C@H]4C[C@@H](F)CN(C)C4)nc23)ccc1Oc1ccc2c(c1)ncn2C` [Example 302]: 65.9 nM, 391 nM, at least 10000 nM, 141 nM and at least 5000 nM.
Consider `Cc1cc(Nc2ncnc3cnc(O[C@H]4CNCC4(F)F)nc23)ccc1Oc1ccc2c(c1)ncn2C` [Example 303], for which the 50% inhibitory concentration (IC50) was 64.2 nM in experiment [1]; 403 nM at ErbB2 WT; at least 10000 nM at EGFR; 257 nM in experiment [2]; at least 5000 nM at EGFR wild type (EGFR WT).
In the case of `Cc1cc(Nc2ncnc3cnc(N(C)[C@@H]4CN(C)C[C@@H]4F)nc23)ccc1Oc1ccc2c(c1)ncn2C` [Example 305], the IC50 in experiment [1] was 14.1 nM; at ErbB2 WT, 20.3 nM; against EGFR, 1860 nM; in experiment [2] it was 10.8 nM; at EGFR wild type (EGFR WT), at least 5000 nM.
In the same order, the values of `Cc1c(Oc2ccn3ncnc3c2)ccc(Nc2ncnc3cnc(N(C)CC(C)(C)O)nc23)c1F` [Example 306] are 16.7 nM, 35.1 nM, 6840 nM, 1000 nM and at least 5000 nM.
